# Measured values published in ChEMBL document CHEMBL4266028, “Salviachinensines A-F, Antiproliferative Phenolic Derivatives from the Chinese Medicinal Plant Salvia chinensis” (J Nat Prod, 2018).
# Activity calls are given as the source filed them. The rule behind the calls is not given here.
# Key:
# Type in all cases: functional, cell-based
# MOLM-13 [1] = assay: Antiproliferative activity against human MOLM13 cells by Cell-Titer Glo assay
# MOLM-14 = assay: Antiproliferative activity against human MOLM14 cells by Cell-Titer Glo assay
# MV4-11 = assay: Antiproliferative activity against human MV4-11 cells by Cell-Titer Glo assay
# MOLM-13 [2] = assay: Cell cycle arrest in human MOLM13 cells assessed as accumulation at G0/G1 phase at 5 uM by flow cytometry
# MOLM-13 [3] = assay: Induction of apoptosis in human MOLM13 cells assessed as increase in PARP cleavage at 5 uM after 24 hrs by Western blot analysis
# MOLM-13 [4] = assay: Induction of apoptosis in human MOLM13 cells assessed as increase in caspase-3 cleavage at 5 uM after 24 hrs by Western blot analysis
SMILES,IC50 (MOLM-13 [1]),"IC50 (MOLM-14; Homo sapiens, MOLM-14)",IC50 (MV4-11),Activity (MOLM-13 [2]),Activity (MOLM-13 [3]),Activity (MOLM-13 [4]),IC50 (MOLM-14; molm-14)
O=C1C[C@H]2c3cc(O)c(O)cc3[C@H](c3ccc(O)c(O)c3)[C@H]2O1,2.3 µM,7.1 µM,> 10 µM,Active,Active,Active,
COC(=O)[C@@H](Cc1ccc(O)c(O)c1)OC(=O)/C=C/c1ccc(O)c(O)c1 [METHYL ROSMARINATE],8.4 µM,> 10 µM,> 10 µM,,,,
COC(=O)[C@@H](Cc1ccc(O)c(O)c1)OC(=O)/C=C/c1ccc(O)c(O)c1/C=C/c1ccc(O)c(O)c1,6.7 µM,> 10 µM,> 10 µM,,,,
O=C(/C=C/c1ccc(O)c(O)c1/C=C/c1ccc(O)c(O)c1)O[C@H](Cc1ccc(O)c(O)c1)C(=O)O [SALVIANOLIC ACID A],2.5 µM,,> 10 µM,,,,6.2 µM
COC(=O)[C@H](O)Cc1ccc2c(c1)O[C@H]([C@H](OC)c1ccc(O)c(O)c1)O2,5.2 µM,> 10 µM,> 10 µM,,,,

# More lines, main results first:
IC50 (MOLM-13 [1]),"IC50 (MOLM-14; Homo sapiens, MOLM-14)",IC50 (MV4-11),SMILES,Activity (MOLM-13 [2]),Activity (MOLM-13 [3]),Activity (MOLM-13 [4]),IC50 (MOLM-14; molm-14)
2.9 µM,7.1 µM,> 10 µM,O=C(/C=C/c1ccc(O)c(O)c1)O[C@H](Cc1ccc(O)c(O)c1)C(=O)O [ROSMARINIC ACID],,,,
7.5 µM,> 10 µM,> 10 µM,COC(=O)[C@H](O)Cc1ccc(O)c(O)c1,,,,
6.4 µM,> 10 µM,> 10 µM,O=C(O)/C=C/c1ccc(O)c(O)c1 [CAFFEIC ACID],,,,
< 0.001 µM,< 0.001 µM,< 0.001 µM,Nc1ccc(-c2ccc3ncc4ccc(=O)n(-c5cccc(C(F)(F)F)c5)c4c3c2)cn1,,,,
